Reference: patent EP0444854B1, “6-Substituted hexahydrobenz[cd]indoles” (ELI LILLY AND COMPANY, priority 1990, dated 1991)
pIC50: −log10 of the molar value.

Molecular target: T1, 5-HT1A receptors (Rattus norvegicus, UniProt P19327)
T1 construct: from tissue; host or cells: rat cerebral cortex, crude synaptosomal membranes
T1 sequence (P19327 1-422): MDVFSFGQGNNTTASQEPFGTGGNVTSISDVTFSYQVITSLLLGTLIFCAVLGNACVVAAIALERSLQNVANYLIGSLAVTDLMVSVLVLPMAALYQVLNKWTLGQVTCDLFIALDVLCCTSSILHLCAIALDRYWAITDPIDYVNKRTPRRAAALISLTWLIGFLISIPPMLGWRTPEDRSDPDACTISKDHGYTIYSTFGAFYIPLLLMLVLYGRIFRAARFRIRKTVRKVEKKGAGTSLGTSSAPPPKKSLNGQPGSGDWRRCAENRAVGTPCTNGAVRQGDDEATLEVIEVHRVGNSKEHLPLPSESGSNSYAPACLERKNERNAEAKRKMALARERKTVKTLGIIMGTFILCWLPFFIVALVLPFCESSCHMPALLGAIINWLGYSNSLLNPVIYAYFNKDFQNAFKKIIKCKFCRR
Experiment: Inhibition of 3H-8-OH-DPAT binding to synaptosomal membranes from rat cerebral cortex
Set-up: species or system Male Sprague-Dawley rats
Conditions: 0.4 nM 3H-8-OH-DPAT; for pIC50: 37°C, 10 min, read-out: IC50 (concentration in nanomoles which inhibited binding of 8-OH-DPAT by 50%); for inhibition at 0.1 µM: at 100 nanomoles of test compound, read-out: percent of inhibition of binding of 8-OH-DPAT at 100 nanomoles if less than 50%
Protocol: This general procedure is set forth in Wong et al., J. Neural Transm. 71:207-218 (1988).
Male Sprague-Dawley rats (110-150 g) from Harlan Industries (Cumberland, IN) were fed a Purina Chow ad libitum for at least 3 days before being used in the studies. Rats were killed by decapitation. The brains were rapidly removed, and the cerebral cortices were dissected out at 4°C.
Brain tissues were homogenized in 0.32 M sucrose. After centrifugation at 1000 x g for 10 min and then at 17000 x g for 20 min, a crude synaptosomal fraction was sedimented. The pellet was suspended in 100 vol of 50 mM Tris-HCl, pH 7.4, incubated at 37°C for 10 min, and centrifuged at 50000 x g for 10 min. The process was repeated and the final pellet was suspended in ice-chilled 50 mM Tris-HCl, pH 7.4. By the radioligand binding method, sites specifically labeled by tritiated 8-hydroxy-2-dipropylamino-1,2,3,4-tetrahydronaphthalene (^3H-8-OH-DPAT) have been identified as 5-HT1A receptors.
Binding of (^3H-8-OH-DPAT) was performed according to the previously described method [Wong et al., J. Neural Transm. 64:251-269 (1985)]. Briefly, synaptosomal membranes isolated from cerebral cortex were incubated at 37°C for 10 min. in 2 ml of 50 mM Tris-HCl, pH 7.4; 10 µM pargyline; 0.6 mM ascorbic acid; 0.4 nM ^3H-8-OH-DPAT; and from […] of test compound. Binding was terminated by filtering samples under reduced pressure through glass fiber (GFB) filters. The filters were washed twice with 5 ml of ice cold buffer and placed in scintillation vials with 10 ml of PCS (Amersham/Searle) scintillation fluid. Radioactivity was measured with a liquid scintillation spectrometer. Unlabeled 8-OH-DPAT at 10 µM was also included in separate samples to establish non-specific binding. Specific binding of ^3H-8-OH-DPAT is defined as the difference of radioactivity bound in the absence and in the presence of 10 µM unlabeled 8-OH-DPAT.
For these compounds which inhibited the binding of ^3H-8-OH-DPAT by less than 50%, the percent of inhibition is given in parenthesis.

Compound: CCCN(CCC)[C@H]1Cc2c(C(=O)OC)ccc3c2[C@@H](CN3)C1 [Example 11, Methyl (2aS,4R)-4-(Di-n-propylamino)-1,2,2a,3,4,5-hexahydrobenz[c,d]indole-6-carboxylate]
- pIC50: 8.24

Compound: CCCN(CCC)[C@H]1Cc2c(C(=O)N(C)C)ccc3c2[C@@H](CN3)C1 [Example 12, (2aS,4R)-N,N-Dimethyl-4-(di-n-propylamino)-1,2,2a,3,4,5-hexahydrobenz[cd]indole-6-carboxamide]
- pIC50: 8.29

Compound: CCCN(CCC)[C@@H]1Cc2c(C(N)=O)ccc3c2[C@H](CN3)C1 [Example 9, (2aR,4S)-4-(di-n-propylamino)-6-aminocarbonyl-1,2,2a,3,4,5-hexahydrobenz[c,d]indole]
- pIC50: 7.96

Compound: CCCN(CCC)[C@H]1Cc2c(C(N)=O)ccc3c2[C@@H](CN3)C1 [Example 10, (2aS, 4R)-4-(di-n-propyl)-6-aminocaronyl-1,2,2a,3,4,5-hexahydrobenz[c,d]indole]
- pIC50: 8.68

Compound: CCCN(CCC)[C@@H]1Cc2c(C#N)ccc3c2[C@@H](C1)CN3C(=O)c1ccccc1 [Example 5, (2aR,4S)-1-benzoyl-4-(di-n-propyl)amino-6-cyano-1,2,2a,3,4,5-hexahydrobenz[cd]indole]
- inhibition at 0.1 µM: 11%

Compound: CCCN(CCC)[C@@H]1Cc2c(Br)ccc3c2[C@@H](C1)CN3C(=O)c1ccccc1 [Example 3, (2aR, 4S)-1-Benzoyl-4-(di-n-propyl)-amino-6-bromo-1,2,2a,3,4,5-hexahydrobenz[cd]indole]
- inhibition at 0.1 µM: 5%

Compound: CCCN(CCC)[C@@H]1Cc2c(C#N)ccc3c2[C@H](CN3)C1 [Example 7, (2aR,4S)-4-(di-n-propyl)amino-6-cyano-1,2,2a,3,4,5-hexahydrobenz[cd]indole]
- inhibition at 0.1 µM: 21%

Compound: N[C@@H]1Cc2c(Br)ccc3c2[C@@H](C1)CN3C(=O)c1ccccc1 [Example 1, (2aR,4S)-1-benzoyl-4-amino-6-bromo-1,2,2a,3,4,5-hexahydrobenz[cd]indole]
- inhibition at 0.1 µM: 6%
